# Measured values taken from patent publication US7485434B2, “Method for screening compounds for those that modulate transducers of regulated CREB activity” (The Salk Institute for Biological Studies, priority 2005, dated 2009).
# Tests used:
# [1] = tested on: AMPK (AMP-activated protein kinase); assay: In vitro kinase assay of GST-TORC2 (161-181) with purified AMPK; type: biochemical; details: 300 μM AMP
# From the text: Specifically, FIG. 20A illustrates the relative phosphorylation of wild-type or Ser171 Ala mutant recombinant GST-TORC2 (161-181) compared to GST only or optimal AMPK peptide substrate (SAMS) by activated AMPK in vitro. Addition of AMP to reactions is shown. The relative incorporation of γ^32P-ATP by each substrate is indicated.
# Recombinant GST-TORC2 (161 -181) wild-type and Ser171 Ala proteins were phosphorylated in vitro with 100 mU purified AMPK (AMP-activated protein kinase) (Upstate Biotech) ±300 μM AMP according to the manufacturer's instructions. Following 15 mm. incubation with γ-^32P-ATP, relative ^32P incorporation was measured by scintillation. GST substrates and SAMS peptide were used at 3 μM in each reaction.
# By contrast with SIK, ATP depletion appears to be uniquely sensed by AMPK, the founding member of this family (see Sakamoto et al., 2004; Lizcano et al., 2004; Bananjee et al., 2004; and Radzuik et al., 2003). The presence of a consensus AMPK phosphorylation site (Ser171) that modulates TORC2 activity in liver prompted examination of whether AMPK inhibits gluconeogenesis via phosphorylation of TORC2 in response to ATP depletion. Activated AMPK phosphorylated wild-type, but not Ser171Ala mutant GST-TORC2 (161-181) peptide in vitro (see FIG. 20A).
# [2] = tested on: CREB:CBP complex (KID:KIX interaction); assay: Mammalian two-hybrid assay GAL4-KID / KIX-VP16 in HIT cells; type: cell-based, Hamster
# [3] = tested on: CREB-dependent EVX-1 promoter; assay: Transient transfection assay of HIT insulinoma cells with CREB-dependent EVX-1 luciferase reporter; type: cell-based, Hamster; details: for induction of CREB-dependent EVX-1 promoter: single stimulus (KCl 45 mM or forskolin), 6 hr
# Experimental: Specifically, FIG. 1A summarizes the results of a transient transfection assay of HIT insulinoma cells transfected with the CREB-dependent EVX-1 luciferase reporter. Cells were treated with KCl (45 mM) and/or forskolin (10 nM) for six hours as indicated.
# HEK293T, HIT or PC 12 cells were co-transfected with EVX or GAL4-LUC reporter plasmid, RSV-beta galactosidase and FLAG-TORC and/or SIK2 expression plasmids overnight using Lipofectamine 2000 (Invitrogen, Carlsbad, Calif.). DNA/lipid complexes were washed the next day and extracts prepared 24 h (293T and PC 12) or 40 hr (HITs) after transfection. […] Luciferase values were normalized to β-gal activity from co-transfected RSV-beta galactosidase activity in the corresponding sample.
# Hamster insulinoma (HIT) cells were employed to test the relative effects of cAMP and calcium signals on CREB activity. Opening of voltage-sensitive L-type calcium channels in response to KC1 depolarization induced the CREB-dependent EVX-1 promoter (Conknight et al., 2003b) 5-fold in HIT cells, whereas addition of cAMP agonist stimulated the reporter 10-fold (see FIG. 1A). […] Consistent with the effects of calcium channel activity on the EVX-1 promoter, treatment with high glucose (20 mM) induced the expression of the endogenous CREB target gene NR4A2 5-fold in MIN6 insulinoma cells; and co-stimulation with glucose plus exendin-4, an analogue of the incretin hormone GLP-1, enhanced NR4A2 mRNA levels 35-fold (see FIG. 1B).
# GAL4-CREB = GAL4-CREB transient GAL4 luciferase reporter assay in HIT cells; type: cell-based, Hamster
# phospho (Ser133) CREB = assay: Western blot of phospho (Ser133) CREB levels in HIT cells; type: cell-based, Hamster; details: forskolin 10 μM or KCl 45 mM
# Experimental: FIG. 1C is a Western blot assay of phospho (Ser133) CREB levels in HIT cells following treatment with KCl (45 mM), forskolin (10 μM), or both together for 30 minutes.
# FIG. 9 illustrates the time course (in minutes) of CREB Ser133 phosphorylation in HIT cells following treatment with forskolin (10 μM) or KCl (45 mM). […] Immunoreactive bands correspond to phospho (Ser133) CREB (top) and phospho (Ser63) ATF1 (bottom).
# Western blot analyses were conducted on whole cell, cytoplasmic and nuclear extracts with the following rabbit polyclonal antisera: phospho (Ser133) specific affinity purified 5322 and phospho (Ser133) specific antibody from Rockland Immunochemicals, Gilbertsville, Pa.), non-discriminating CREB (244), phosphor (Ser171) CREB, TORC2, pan-TORC, SIK1 and SIK2. 14-3-3 and Hsp90 antibodies were from Santa Cruz (Santa Cruz, Calif.). FLAG-M2 (Sigma) and GAL4 (Santa Cruz) monoclonal antibodies were used at 1:2000 and 1:1000 dilutions, respectively. For quantitative western blotting, goat anti-mouse-800 nm fluorophore conjugate to detect FLAG-M2 was used at 1:40,000 dilution according to manufacturer's instructions (Licor) prior to analysis using the Odyssey detection system. GST-pulldowns were performed as described (Asahara et al., 2001). […]
# TORC2 [4] = assay: EVX-1 reporter assay in HIT cells co-transfected with TORC2 expression vector; type: cell-based, Hamster
# Experimental: Cells were treated with forskolin or KCl as indicated.
# SIK1 = SIK1 mRNA levels in primary rat hepatocytes; type: cell-based
# From the text: FIG. 18F summarizes the effect of FSK treatment on SIK1 mRNA levels in primary rat hepatocytes. Cells were infected with control (GFP) or dominant negative A-CREB adenovirus as indicated.
# Based on the ability of CHX to disrupt TORC2 Ser171 phosphorylation, it was hypothesized that glucagon induces the expression of an inhibitory kinase during the attenuation period. […] Indeed, fasting induced SIK1 mRNA and protein levels in liver 4-fold relative to feeding conditions, whereas expression of other SIK family members (SIK2 and SIK3) was unaffected (see FIGS. 18D and 18E).
# TORC:14-3-3 complexes = assay: Co-immunoprecipitation of TORC with endogenous 14-3-3 proteins; type: cell-based; details: basal and cAMP stimulated conditions; CsA 5 μM, OA 100 nM
# From the text: FIGS. 5A-5D illustrate that 14-3-3 proteins associate with and repress TORC activity. Specifically, FIG. 5A, top panel, presents the results of a coimmunoprecipitation assay of Flag-TORC1 with endogenous 14-3-3 proteins in HEK293T cells. The effect of forskolin (F) treatment on the TORC 1: 14-3-3 association is shown. […] FIG. 5A, bottom left panel, is a Western blot assay of 14-3-3 proteins recovered from TORC or control 1 gG immunoprecipitates, illustrating the effect of forskolin treatment on endogenous TORC: 14-3-3 complexes in PC12 and HEK293T cells. Input levels of 14-3-3 and TORC proteins are shown. […] FIG. 5A, bottom right panel, illustrates the kinetics of TORC2 dissociation from endogenous 14-3-3 proteins in response to forskolin treatment of HEK293T cells. The levels of Flag-tagged TORC 2 (FLAG-T2) recovered from flag immunoprecipitates at each time point is shown below.
# Rabbit pan-TORC (raised against 1-42 of human TORC1) and TORC2 selective rabbit polyclonal antiserum (raised against amino acids 454-607 of mouse TORC2) were generated as previously described (Conkright et al., 2003a)). Whole cell protein was extracted from cultured HEK293T, HIT, and MIN6 cells in Laemmli SDS sample buffer. Alternatively, whole cell protein was extracted from liver tissue or primary hepatocytes in SDS-urea-lysis buffer. […]
# primary rat hepatocytes = assay: Glucose output from primary rat hepatocytes; type: cell-based; details: FSK/DEX
# Experimental: FIG. 17C summarizes the effect of TORC on glucose output from primary rat hepatocytes in response to fasting and feeding signals. Cells were infected with TORC1, TORC2, or control GFP adenovirus and then treated with FSK plus dexamethasone (FSK/DEX) for four hours. The effect of insulin on glucose output is shown.
# Rat primary hepatocytes were prepared from 200-300g of Sprague-Dawley rats by collagenase perfusion method as described previously (see Koo et al., 2004). 1×10^6 cells were plated in 6 well plates with medium 199 (Invitrogen, Carlsbad, Calif.) supplemented by 10% FBS, 10 units/ml penicillin, 10 μg/ml streptomycin, and 10 nM dexamethasone for 3-6 hours. After attachment, cells were infected with adenoviruses for 16 hours. Subsequently, cells were maintained in medium 199 without FBS and dexamethasone for 24 hours (for cDNA expression adenoviruses) or 48 hours (for RNAi adenoviruses) and […] forskolin or 100 nM glucagon for 2 hours unless noted otherwise. For experiments with cycloheximide, 10 μg/ml cycloheximide was added 30 minutes prior to the addition of 100 nM glucagon.
# The ability of TORC2 to modulate gluconeogenic gene expression in hepatocytes exposed to cAMP agonist is consistent with the proposal that this coactivator modulates glucose output from the liver in response to fasting signals.
# CREB = CREB Ser133 phosphorylation in liver after IP injection (histochemical and Western blot); type: in vivo; details: mice; intraperitoneal administration
# TORC2 [5] = assay: TORC2 localization, Ser171 phosphorylation and promoter recruitment in liver after IP injection; type: in vivo; details: mice; IP administration
compound,measurement,setting,value
Nc1ncnc2c1ncn2[C@@H]1O[C@H](COP(=O)(O)O)[C@@H](O)[C@H]1O [AMP],phosphorylation of TORC by AMPK,[1],induced
[Cl-].[K+] [KCl],effect on KID:KIX interaction,[2]; KCl depolarization alone,had no effect
same,induction of CREB-dependent EVX-1 promoter,[3],5 fold
same,induction of GAL4 reporter activity via GAL4-CREB,GAL4-CREB; added individually,2 fold
same,response of truncated GAL4-CREBΔbZIP polypeptide,GAL4-CREB; lacking bZIP domain (aa. 284-341),no induction
same,levels of CREB Ser133 phosphorylation,phospho (Ser133) CREB,increased levels of CREB Ser133 phosphorylation
same,further potentiation of EVX-1 reporter in TORC2 over-expressing cells,TORC2 [4],30 fold
"C=C[C@@]1(C)CC(=O)[C@]2(O)[C@@]3(C)[C@@H](O)CCC(C)(C)[C@@H]3[C@H](O)[C@H](OC(C)=O)[C@@]2(C)O1 [forskolin, Forskolin]",induction of SIK1 mRNA levels,SIK1,20 fold
same,stimulation of KID:KIX interaction (GAL4 luciferase reporter),[2]; 6 hours,20 fold
same,stimulation of CREB activity (EVX-1 reporter),[3]; co-stimulation with both forskolin and KCl,80 fold
same,induction of CREB-dependent EVX-1 promoter,[3],10 fold
same,induction of GAL4 reporter activity via GAL4-CREB,GAL4-CREB; KCl and forskolin in combination,22 fold
same,induction of GAL4 reporter activity via GAL4-CREB,GAL4-CREB; added individually,5 fold
same,further potentiation of EVX-1 reporter in TORC2 over-expressing cells,TORC2 [4],25 fold
C=C1[C@@H](O)[C@@H]2O[C@]3(CC[C@H](/C=C/[C@@H](C)[C@@H]4CC(C)=C[C@@]5(O[C@H](C[C@@](C)(O)C(=O)O)CC[C@H]5O)O4)O3)CC[C@H]2O[C@@H]1[C@@H](O)C[C@H](C)[C@H]1O[C@@]2(CCCCO2)CC[C@H]1C [okadaic acid],effect of phosphatase inhibitor on TORC:14-3-3 complex formation,TORC:14-3-3 complexes,had no effect on this interaction
insulin,effect on glucose output from TORC over-expressing cells,primary rat hepatocytes,disrupted
same,CREB Ser133 phosphorylation in liver,CREB,comparable effects on Ser133 phosphorylation
same,TORC2 phosphorylation at Ser171 in liver,TORC2 [5],highly phosphorylated at Ser171
same,nuclear translocation of hepatic TORC2,TORC2 [5],did not stimulate nuclear entry of TORC2
